{"source": "patent EP0139358B1", "about": "“N6-substituted diarylalkyl adenosines, processes for their production and pharmaceutical compositions comprising the same” (priority 1983, dated 1985)", "test_system": "conscious rat", "assay": "Antihypertensive evaluation (AHP3): aortic blood pressure and heart rate", "type": "in vivo", "settings": "for Mμ.c. ↓ / HR ↑: conscious rat; for Mμ.c. ↓: decrease in mean arterial blood pressure; for HR ↑: heart rate increase", "data": [{"smiles": "OC[C@H]1O[C@@H](n2cnc3c(NCC(c4ccccc4)c4ccccc4)ncnc32)[C@H](O)[C@@H]1O", "note": "[Example 1, N^6-(2,2-Diphenylethyl)adenosine]", "values": [{"measurement": "Mμ.c. ↓", "setting": "1 mg/kg", "result": 16, "unit": "%"}, {"measurement": "HR ↑", "setting": "1 mg/kg", "result": "<20", "unit": "%"}, {"measurement": "Mμ.c. ↓", "setting": "3 mg/kg", "result": 20, "unit": "%"}, {"measurement": "HR ↑", "setting": "3 mg/kg", "result": "<20", "unit": "%"}, {"measurement": "Mμ.c. ↓", "setting": "10 mg/kg", "result": 20, "unit": "%"}, {"measurement": "HR ↑", "setting": "10 mg/kg", "result": "<20", "unit": "%"}, {"measurement": "Mμ.c. ↓", "setting": "30 mg/kg", "result": 35, "unit": "%"}, {"measurement": "HR ↑", "setting": "30 mg/kg", "result": "<20", "unit": "%"}, {"measurement": "minimal effective dose", "setting": "Rattus norvegicus, read-out: AHP3 BP LAD", "result": 1, "unit": "mg/kg"}]}]}
